Reference: US20240342168A1, “SMALL MOLECULE INHIBITORS FOR ANTI-CANCER COMBINATION THERAPY” (UNIVERSITY OF CAPE TOWN, priority 2021, published 2024)

What was measured:
[1] = test system: γH2AX; test: Western blot of phosphorylated Histone 2AX (DNA damage marker); format: cell-based; conditions: INI-43-cisplatin CT, 24 h, concentration dependent
Procedure: (§1) For protein extraction, cells were washed with PBS and lysed using RIPA buffer (50 mM Tris-CI, pH 7.4, 150 mM NaCl, 1% (w/v) sodium deoxycholate, 0.1% (v/v) SDS, 1% (v/v) Triton X-100, 2 mM EGTA, 2 mM EDTA, 50 mM NaF, 5 mM Na2P2O7, 1× complete protease inhibitor cocktail (Roche) and 0.1 M Sodium Orthovanadate). For PARP cleavage analysis, dead cells were collected by centrifugation and combined with live cell lysates. Lysates were sonicated, centrifuged, and the supernatant quantified using the BCA Protein Assay Kit (Pierce, Thermo Scientific) according to the manufacturer's instructions. Proteins were subjected to Western blot analysis using the following antibodies: rabbit anti-Kpnβ1 (H-300, sc-11,367, Santa Cruz), rabbit anti-β-tubulin (H-235, sc-9104, Santa Cruz), rabbit anti-PARP1/2 antibody (H-250, sc-7150, Santa Cruz), mouse anti-GAPDH (0411, sc-47,724, Santa Cruz), rabbit anti-p21 (H-164, sc-756, Santa Cruz), rabbit anti-Mcl-1 (H-260, sc-20,679, Santa Cruz), mouse anti-cyclin D1 (HD11, sc-246, Santa Cruz), rabbit anti-c-Myc (N-262, sc-764, Santa Cruz), mouse anti-p53 (DO-7, M7001, DakoCytomation), mouse anti-XIAP (610,763, BD Biosciences), and rabbit anti-phospho-Histone H2AX (γH2AX, Ser139, 20E3, #9718, Cell Signal).

[2] = test system: p53, p21 and Mcl-1 in SiHa cells; test: Western blot of p53 and p53 targets; format: cell-based
Procedure: as §1

[3] = test system: NFκB-p50 and NFκB-p65 in SiHa cells; test: Immunofluorescence of NFκB nuclear localization; format: cell-based
Procedure: SiHa cells were plated on glass coverslips and treated for 24 h before fixation with 4% paraformaldehyde. Cells were permeabilised using 0.5% Triton-X-100/PBS and blocked using 1% BSA/PBST with 0.3 M Glycine. Primary antibody incubations were performed in 1% BSA/PBST, followed by secondary antibody incubation (Cy3 conjugated goat anti-rabbit, Jackson ImmunoResearch). Cell nuclei were counterstained with 0.5 μg/mL DAPI, and images captured using the Zeiss inverted fluorescence microscope under 100× oil immersion.

[4] = test system: HeLa cells; test: Drug washout experiments (MTT); format: cell-based
Procedure: Cells were plated in 96-well plates and subjected to 2 h INI-43 pre-treatment followed by cisplatin treatment, with or without removing INI-43 from the media, for 48 h. Following treatment, MTT (Sigma) was added and 4 h later crystals solubilized using 10% SLS in 0.01 M HCl.

[5] = test system: NFκB-p65 in cancer cells; conditions: van der Watt et al. 2016; cited from earlier work
[6] = test system: p53 reporter activity in SiHa cells; test: p53-luciferase reporter assay; format: cell-based
Procedure: SiHa cells were transfected with 100 ng p65-luciferase reporter construct (containing five copies of the p65-binding site, Promega) or 200 ng p53-luciferase reporter construct (containing thirteen wildtype p53 binding sites, Addgene plasmid #16442, Addgene Plasmid Repository (el-Deiry W S, Tokino T, Velculescu V E, Levy D B, Parsons R, Trent J M, et al. WAF1, a potential mediator of p53 tumor suppression. Cell. 1993; 75(4):817-25) and 10 ng pRL-TK (encoding Renilla luciferase, Promega), using Genecellin transfection reagent (Celtic Molecular Diagnostics). The following day cells were treated with 5 μM INI-43 for 2 h, followed by 30 μM cisplatin for 24 h, and luciferase activity assayed using the Dual-Luciferase Report assay system (Promega), according to the manufacturer's instructions. Luciferase readings were measured using the Veritas™ microplate luminometer (Promega) and normalised to Renilla luciferase from the same extract.

[7] = test system: NFκB-p50 and NFκB-p65 in SiHa cells; test: Nuclear/cytoplasmic fractionation and Western blot; format: cell-based; conditions: INI-43-cisplatin CT vs cisplatin
Procedure: For protein extraction, cells were washed with PBS and lysed using RIPA buffer (50 mM Tris-CI, pH 7.4, 150 mM NaCl, 1% (w/v) sodium deoxycholate, 0.1% (v/v) SDS, 1% (v/v) Triton X-100, 2 mM EGTA, 2 mM EDTA, 50 mM NaF, 5 mM Na2P2O7, 1× complete protease inhibitor cocktail (Roche) and 0.1 M Sodium Orthovanadate). For PARP cleavage analysis, dead cells were collected by centrifugation and combined with live cell lysates. Lysates were sonicated, centrifuged, and the supernatant quantified using the BCA Protein Assay Kit (Pierce, Thermo Scientific) according to the manufacturer's instructions. […]
For nuclear/cytoplasmic protein extraction, cells were collected by trypsinization. […] The fractions were quantified using the BCA Protein Assay Kit (Pierce, Thermo Scientific) according to the manufacturer's instructions, followed by western blot analysis.

[8] = test system: p53 in SiHa cells; test: p53 half-life determination (cycloheximide chase, Western blot); format: cell-based; conditions: 5 μM INI-43 2 h vs DMSO, then 50 μg/mL CHX
Procedure: Cells were treated with 5 μM INI-43 or DMSO for 2 hours or transfected with 20 nM si-ctrl or si-Kpnβ1 for 48 h prior to p53 half-life determination. Cells were treated with 50 μg/mL cycloheximide (CHX), and protein harvested at 0, 15, 30, 45, 60 and 90 min after CHX treatment. p53 content was analysed by western blotting. Bands were quantified by densitometrical scanning using ImageJ, normalised to GAPDH and expressed as a value relative to p53 intensity at time 0. Relative band intensities were plotted in log scale against time of CHX treatment and a linear trendline drawn. The half-life was calculated using the formula T1/2 (minutes)=Log(2)/[slope].

## CN(C)CCCn1c(N)c(-c2nc3ccccc3[nH]2)c2nc3ccccc3nc21 [INI-43]
[1]
  γH2AX levels: increased
[2]; 60 μM cisplatin
  Mcl-1 levels, INI-43 and cisplatin vs single cisplatin: reduced
[2]; 30 and 60 μM cisplatin
  p21 levels, INI-43 and cisplatin vs single cisplatin: elevated
[2]; SiHa, treatment with INI-43 and cisplatin
  p53 protein levels: increased
[3]; INI-43-cisplatin CT vs cisplatin
  nuclear fluorescence relative to cytoplasmic fluorescence (Fc (Nu/Cy)): significantly reduced this effect
[3]; INI-43 pre-treatment plus cisplatin
  cisplatin-induced nuclear translocation of NFκB-p50 and NFκB-p65: prevented this nuclear translocation
[4]; 2 h INI-43, removed before cisplatin treatment (washout 1 and 2), 48 h
  cell viability, combination treatment vs cisplatin alone after INI-43 washout: significantly reduced cell viability
[4]; HeLa cells, vs INI-43 still present
  enhancement of cell death upon combination treatment after INI-43 washout: slightly reduced
[5]
  PMA-stimulated nuclear entry of NFκB-p65: prohibited
[6]; 5 μM INI-43 alone, 24 h
  p53 reporter activity: small but significant increase
[6]; INI-43 pre-treatment plus cisplatin vs cisplatin alone
  p53 reporter activity: significantly increased
[7]
  levels of NFκB-p50 and NFκB-p65 in the nucleus: reduced this effect
[8]
  increase in p53 half-life: ~2.9 fold
